Laboratory results: patent publication US20030165837A1, “Method for screening DNA binding” (The Scripps Research Institute, priority 2000, published 2003)

Experiments:
[1] = test system: library of 512 hairpin deoxyoligonucleotides containing all possible five bp sequences; experiment: Fluorescent intercalator displacement (ethidium bromide) assay, 96-well, 512-member hairpin library; format: binding; details: for 3 or 2 bp AT sites, statistical site frequency in the top 50 sequences: FIG. 24; for five bp AT sites found in the top 50 sequences: share of the 16 five bp AT sites; for four bp AT sites found in the top 50 sequences: share of the 32 four bp AT sites; for three bp AT sites found in the top 50 sequences: share of the 80 three bp AT sites
Protocol: Ethidium Bromide Assay. […] Prior to use, each deoxyoligonucleotide was diluted to […] in water and stored at 0° C. for no longer than two days. Each well of a Costar black 96-well plate was loaded with Tris buffer containing ethidium bromide (88 μL of a 0.68×10^−5 solution in buffer (0.1 M Tris, 0.1 M NaCl, pH 8), 0.60×10^−5 M ethidium bromide final concentration). To each well was added one hairpin deoxyoligonucleotide (10 μL, 1.2×10^−5 M in DNA bp final concentration) followed by agent (2 μL of a 0.1 mM solution in water, 2.0×10^−6 M final concentration). […] Fluorescence readings are reported as % fluorescence relative to the control wells. Fluorescence plate readers show a variability of ±10%, but surface effects (i.e bubbles, dust) may contribute to larger variations requiring a second set of measurements.
All other experiments described herein (i.e. compound concentration, overall assay concentration, ethidium bromide:DNA ratio, time variability, etc.) utilized this general procedure in a 96-well plate format.

[2] = test system: hairpin deoxyoligonucleotides (AATTT, AAAAA, AATAA, ATTAA); experiment: Ethidium bromide displacement quantitative titration, Scatchard analysis; format: binding; details: for binding constant for the hairpin containing AAAAA: ethidium bromide displacement titration
Protocol: Determination of Binding Constants. Ethidium Bromide/Thiazole Orange Displacement. A 3 mL quartz cuvette was loaded with Tris buffer (0.1 M Tris, 0.1 M, NaCl, pH 8) and ethidium bromide orthiazole orange (0.44×10^−5 M final concentration). […] The hairpin deoxyoligonucleotide of interest was added (1.1 μM, 8.8 μM in bp final concentration), the fluorescence was measured again and normalized to 100% relative fluorescence. A solution of compound (2 μL, 0.1 mM in DMSO) was added and the fluorescence was measured following 5 min of incubation at 23° C. The addition of 2 μL aliquots was continued until the system reached saturation and the fluorescence remained constant with subsequent compound additions.
(§1) Scatchard Analysis of the Titration Curve. The AF was plotted versus molar equivalents of agent and the ΔFsat was determined mathematically by solving the simultaneous equations representing the pre and post saturation regions of the titration curve. Utilizing equations (1)-(3) (FIG. 11), a Scatchard plot was generated where ΔF/[Free Agent] was plotted versus ΔF. The slope of the region immediately preceding complete saturation of the system provided −K.

[3] = test system: 136-membered hairpin library containing all possible four bp sites; experiment: Thiazole orange displacement 96-well assay, 136-membered hairpin library; format: binding; details: 136 hairpins
Protocol: A preliminary examination of thiazole orange was conducted to assess the optimal assay concentration range, and to establish its affinity and stoichiometry of binding with representative hairpins (FIG. 10). Thiazole was utilized in both the 96-well format assay and in quantitative titrations for determining binding constants (FIGS. 27 and 28). […] A representative example of the use of thiazole orange in the 96-well format assay is illustrated in FIG. 28 with the assay of netropsin against a 136-membered hairpin library containing all possible four bp sites. […] The mean rank of the ten available 4 bp AT sites was 7.3, whereas the mean positions for the 3 and 2 bp sites were 41.6 and 67.7, respectively. Moreover, the rank order binding across the full ensemble of 4 bp AT sites is consistent with that established in footprinting studies (Portugal, J.; Waring, M. J. Eur. J. Biochem. 1987, 167, 281; Portugal, J.; Waring, M. J. FEBS Lett. 1987, 225, 195; Abu-Daya, A.; et al. Nucleic Acids Res. 1995, 23, 3385; Abu-Daya, A.; Fox, K. R. Nucleic Acids Res. 1997, 25, 4962; Harshman, K. D.; Dervan, P. B. Nucleic Acids Res. 1985, 13, 4825; Van Dyke, M. W.; et al. Proc. Natl. Acad. Sci. USA 1982, 79, 5470; Ward, B.; et al. Biochemistry 1988, 27, 1198; Fish, E. L.; et al. Biochemistry 1988, 27, 6026; Kittler, L.; et al. J. Mol. Recognit. 1999, 12, 121).

GC-rich regions = details: fold weaker; cited from earlier work
[4] = test system: hairpin deoxyoligonucleotide; experiment: Direct fluorescence titration of DAPI, Hoechst 33258, ethidium bromide or thiazole orange; format: binding; details: FIG. 10, second table
Protocol: Direct Fluorescence Titration of DAPI, Hoechst 33258, Ethidium Bromide or Thiazole Orange. A 3 mL quartz cuvette was loaded with Tris buffer (0.1 M Tris, 0.1 M, NaCl, pH 8) and hairpin deoxyoligonucleotide (1.1 μM, 8.8 μM in bp final concentration). A solution of DAPI (excitation 372 nm; emission 454 nm; 2 μL, 0.1 mM in DMSO), Hoechst 33258 (excitation 358 nm; emission 454 nm; 2 μL, 0.1 mM in DMSO), ethidium bromide (excitation 545 nm; emission 595 nm; 2 μL, 0.5 mM in H2O) or thiazole orange (excitation 509 nm; emission 527 nm; 2 μL, 0.5 mM in DMSO) was added and the fluorescence was measured following 5 min of incubation at 23° C. The addition of 2 μL aliquots was continued until the system reached saturation and the fluorescence remained constant with subsequent additions.
as §1

polynucleotides = experiment: Binding constants of ethidium bromide and thiazole orange to polynucleotides (FIG. 10, first table)
Excerpt: FIG. 10 is a table showing the binding constants of ethidium bromide and thiazole orange. […] The variation in the DNA used in the first table is much greater than that used in the second table which explains the greater variation in the ethidium bromide constants.

| SMILES | sites containing a GC bp central to a five bp AT-rich site in the top 50 sequences ([1]; 512 hairpins) | 3 or 2 bp AT sites, statistical site frequency in the top 50 sequences ([1]; 512 hairpins) | five bp AT sites found in the top 50 sequences ([1]; 512 hairpins) | four bp AT sites found in the top 50 sequences ([1]; 512 hairpins) | three bp AT sites found in the top 50 sequences ([1]; 512 hairpins) | binding constant for the hairpin containing AAAAA ([2]; hairpin containing 5′-AAAAA) | also measured |
| --- | --- | --- | --- | --- | --- | --- | --- |
| Cn1cc(NC(=O)c2cc(NC(=O)CN=C(N)N)cn2C)cc1C(=O)NCCC(=N)N [netropsin] | no AT-rich sequence interrupted by a central GC bp appears in the top 50 sequences | 9% | 100% | 84% | 9% | 3.47e+08 M⁻¹ | rank (sequence no.) of ATTTA ([1]; 1.0 μM netropsin): 3; rank (sequence no.) of ATTTA ([1]; 2.0 μM netropsin): 1; ethidium bromide displaced at saturation binding ([2]; hairpin containing 5′-AAAAA): essentially all the ethidium bromide; mean position of the 2 bp AT sites [3]: 67.7; mean position of the 3 bp AT sites [3]: 41.6; mean rank of the ten available 4 bp AT sites [3]: 7.3 |
| CC(=O)NCC(=O)O.CC(=O)NCC(=O)O.N=C(N)c1ccc(N=NNc2ccc(C(=N)N)cc2)cc1 [berenil] |  | 15% | 100% | 66% | 15% | 6.4e+06 M⁻¹ |  |
| Cl.Cl.N=C(N)c1ccc(-c2cc3ccc(C(=N)N)cc3[nH]2)cc1 [DAPI, 4′,6-Diamidine-2-phenylindole.2HCl] | none | 14% | 100% | 72% | 14% | 5e+07 M⁻¹ | % fluorescence decrease ([1]; non AT-rich hairpins (>150-512), 2 μM): < 20%; binding to GC-rich regions by intercalation relative to AT-rich minor groove binding (GC-rich regions): 100-1000 fold |
| CN1C(=Cc2cc[n+](C)c3ccccc23)Sc2ccccc21 [thiazole orange] |  |  |  |  |  |  | difference in binding constants between hairpins [4]: 1.3 fold; difference in binding constant between polynucleotides (polynucleotides): no difference |
| Cn1cc(NC(=O)c2cc(NC(=O)c3cc(NC=O)cn3C)cn2C)cc1C(=O)NCCC(=N)N [distamycin A] |  | 27% | 88% | 47% | 13% | 1.7e+07 M⁻¹ | hairpin sites with a GC bp central to a five bp AT-rich site found in the top 50 sequences ([1]; share of the 16 such hairpin sites): 44%; two bp AT sites found in the top 50 sequences ([1]; share of the 176 two bp AT sites, 512 hairpins): 6%; top 50 sequences that contain a GC bp central to a five bp AT-rich site ([1]; share of the top 50 sequences): 14% |
| CN1CCN(c2ccc3[nH]c(-c4ccc5[nH]c(-c6ccc(O)cc6)nc5c4)nc3c2)CC1 [Hoechst 33258] | no site containing a GC bp central to a 5 bp AT-rich site is found in the top 50 sequences | 19% | 100% | 59% |  | 7.2e+07 M⁻¹ | GAAT among the top 50 sequences ([1]; 5 sequences): 10%; GATT among the top 50 sequences ([1]; 7 sequences): 14%; top 50 sequences that contain a three bp AT site flanked by a GC bp ([1]; 15 in the top 50): 30%; sequences 21-50 (next 30 after the top 20) that contain a three bp AT site flanked by a GC bp ([1]; 15 of the next 30 sequences): 50%; fluorescent decrease ([1]; hairpins >100-150): < 20%; binding constants by ethidium bromide displacement relative to direct titration ([2]; fold weaker than direct titration, four hairpins): ~2 fold |
